Experimental data as given in article PMC12153356, “An antisense oligomer conjugate with unpredicted bactericidal activity against Fusobacterium nucleatum” (mBio, 2025).
Square brackets hold non-standard residues; d marks the D form. Peptide text beside a SMILES is read from it. * marks the point of attachment. 5TAMRA = CN(C)c1ccc2c(c1)Oc1cc(N(C)C)ccc1C21OC(=O)c2cc(C(=O)*)ccc21; Ahx = NCCCCCC(=O)O; βAla = NCCC(=O)O

Test system: F. nucleatum subsp. nucleatum ATCC 23726 (FNN23)
Experiment: CPP-TAMRA uptake by confocal laser scanning microscopy (CLSM)
Assay type: cell-based, Fusobacterium nucleatum subsp. nucleatum ATCC 23726
Conditions: 5 µM CPP-TAMRA, FNN23 10^8 CFU/mL in MHB, 37°C, 10, 30 and 60 min, 100 cells from four images, cytoplasmic signal
Source text: To investigate the efficiency of different cell-penetrating peptides, we excluded a flow cytometry approach to quantify penetration efficiency because upon cell fixation, CPPs were reported to bind to cell membranes and remain attached even after multiple washes, which would result in a false-positive penetration signal in flow cytometry ([118]). Thus, we opted for a microscopy-based investigation with lower throughput but discrimination potential between membrane-associated and cytosolic signals. CPPs were coupled to the fluorophore 5(6)-carboxytetramethylrhodamine (TAMRA) by Peps4LS GmbH, and 200 µM stocks were prepared in house. […] The emission was detected at 685–795 nm for FM 4–64 and 570–620 nm for TAMRA. CLSM images were analyzed using ImageJ. To quantify CPP uptake, 100 cells were chosen out of four images per condition using the bright field image and analyzed for cytosolic TAMRA signal by excluding TAMRA-negative cells and TAMRA signal co-localized with the FM 4–64 signal.

CN(C)c1ccc2c(c1)Oc1cc(N(C)C)ccc1C21OC(=O)c2cc(C(=O)N[C@@H](CCCNC(=N)N)C(=O)NCCCCCC(=O)N[C@@H](CCCNC(=N)N)C(=O)N[C@@H](CCCNC(=N)N)C(=O)NCCCCCC(=O)N[C@@H](CCCNC(=N)N)C(=O)N[C@@H](CCCNC(=N)N)C(=O)NCCCCCC(=O)N[C@@H](CCCNC(=N)N)C(=O)N[C@@H](CCCNC(=N)N)C(=O)NCCCCCC(=O)N[C@@H](CCCNC(=N)N)C(=O)NCCCCCC(=O)NCCC(=O)O)ccc21 [(RXR)4XB-TAMRA] (5TAMRA-R[Ahx]RR[Ahx]RR[Ahx]RR[Ahx]R[Ahx][βAla]-OH)
TAMRA-positive cells (uptake efficiency): 100%
